This is an account of results in US20110183978A1, “Phenylpyri(mi)dinylazoles” (Bayer CropScience AG, priority 2009, published 2011).

Each structure is given as a SMILES string. Where two headings read alike, the source gives them in different places.

In experiment [1] the test system is Alternaria brassicae. In words: Example C: in vivo test on Alternaria brassicae (leaf spot disease on radishes). Conditions: 500 ppm; radish plants sprayed 24 hours before inoculation; scored after 6-7 days. The protocol: In Vivo Test on Alternaria Brassicae (Leaf Spot Disease on Radishes) An aqueous suspension of the active substance was prepared by homogenization of a mixture of acetone/Tween/dimethyl sulphoxide and subsequent dilution with water to the desired concentration. Radish plants (variety: Pernot) are sown in cultivation dishes on a peat-pozzolanic earth substrate (50/50) at 18-20° C. and sprayed at the cotyledon stage with the aqueous suspension described above. As a control, plants are sprayed with an aqueous solution with no active substance. After 24 hours, the plants are inoculated by spraying with an aqueous suspension of Alternaria brassicae spores (40,000 spores per ml). The spores are derived from a 12 to 13 day-old culture. The inoculated radish plants are incubated for 6-7 days at ca. 18° C. in a humid atmosphere. After 6-7 days they are scored in comparison with the control plants.

Experiment [2] deals with Botrytis cinerea. In words: Example B: in vivo test on Botrytis cinerea (grey mould on cucumbers). Conditions: cucumber plants sprayed 24 hours before inoculation, scored after 5-7 days, read-out: % Wirkungsgrad. On the procedure:
In Vivo Test on Botrytis Cinerea (Grey Mould on Cucumbers) An aqueous suspension of the active substance was prepared by homogenization of a mixture of acetone/Tween/dimethyl sulphoxide and subsequent dilution with water to the desired concentration. Cucumber plants (variety: Vert petit de Paris) are sown in cultivation dishes on a peat-pozzolanic earth substrate (50/50) at 18-20° C. and sprayed at the cotyledon stage Z11 with the aqueous suspension described above. As a control, plants are sprayed with an aqueous solution with no active substance. […] The spores are derived from a 15 day-old culture which are suspended in the following nutrient solution: • 20 g/l gelatine • 50 g/l D-fructose • 2 g/l NH4NO3 • 1 g/l KH2PO4 The inoculated cucumber plants are kept for 5-7 days in a climatic chamber at […] After 5-7 days they are scored in comparison with the control plants.

For experiment [3], the system named is Rhizoctonia solani. The experiment can be described thus: Example W: in vivo test on Rhizoctonia solani (sheath blight in rice/protective). Conditions: 96 h, rice, protective, 250 ppm active substance, assessed 4 days after inoculation, read-out: % Activity level. In a few lines: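 Young rice plants sprayed protectively with compound in acetone/alkylaryl polyglycol ether emulsion diluted in water at stated dosage. Inoculated with R. solani hyphae one day later; disease assessed 4 days post-inoculation.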

The subject of experiment [4] is Sphaerotheca fuliginea. The experiment can be described thus: Example L: in vivo test on Sphaerotheca fuliginea (powdery mildew on cucumber/protective). Conditions: Podosphaera fuliginea, 168 h, cucumber, protective, assessment 7 days after inoculation, read-out: % Wirkungsgrad. In a few lines:
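Young cucumber plants sprayed at stated dosage with compound in DMF/alkylaryl polyglycol ether emulsifier diluted in water; inoculated with S. fuliginea spores one day later. Kept in greenhouse at 70% relative humidity, 23° C; protective activity assessed 7 days after inoculation.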

Experiment [5] concerns Septoria tritici. In words: Example R: in vivo test on Septoria tritici (leaf blotch in wheat/protective). Conditions: Zymoseptoria tritici, 504 h, wheat, protective, 1000 ppm active substance, assessed 21 days after inoculation, read-out: % Wirkungsgrad (activity level). In a few lines:
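Protective test: young wheat plants sprayed with compound in N,N-dimethylacetamide/alkylaryl polyglycol ether emulsifier diluted in water, dried, then inoculated with Septoria tritici spore suspension. Disease assessed 21 days after inoculation.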

The subject of experiment [6] is Fusarium nivale (var. majus). In words: whole plant or invertebrate. The class given is in vivo. Conditions: Microdochium nivale, in Triticum aestivum, 120 h, read-out: % Wirkungsgrad (activity level).
The test system of experiment [7] is Plasmopara viticola. The experiment can be described thus: Example N: in vivo test on Plasmopara viticola (downy mildew, vine/protective). Conditions: 144 h, vine, protective, assessment 6 days after inoculation, read-out: % Wirkungsgrad. In a few lines:
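Protective test: young vine plants were sprayed with active substance diluted in water from a solvent/alkylaryl polyglycol ether emulsifier concentrate at the stated dosage, then inoculated with P. viticola. Plants were moistened and kept 1 day in an incubation cabin, and assessed 6 days after inoculation.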

Experiment [8] deals with Aspergillus parasiticus. In words: microbe, parasite or virus in culture. The class given is cell-based. Conditions: 168 h.
Experiment [9] has as its system Peronospora parasitica. The experiment can be described thus: Example A: in vivo test on Peronospora parasitica (downy mildew on white cabbage). Conditions: Hyaloperonospora parasitica, 120 h, cabbage plants sprayed 24 hours before inoculation, scored after 5 days, read-out: % Wirkungsgrad. In a few lines: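 Cabbage plants (Eminence) at cotyledon stage sprayed with aqueous compound suspension (acetone/Tween/DMSO, diluted with water), then inoculated 24 h later with P. parasitica spores at 50,000 spores/ml. After 5 days in moist atmosphere at ca. 20 °C, disease scored against untreated sprayed controls.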

The subject of experiment [10] is Fusarium proliferatum. In words: Example I: production of fumonisin FB1 by Fusarium proliferatum (microtitre plates). The class given is cell-based. Conditions: 120 h.
The mark [11] stands for this setting: 50 μM, 7 days at 20° C., read-out: Inhibition der Aflatoxin produktion bei 50 μM.
Where [12] appears, read: read-out: % Inhibition des Pilzwachstums bei 50 μM.
Setting [13] is: Fusarium proliferatum growth, OD 620, 5 days, read-out: % Inhibition des Pilzwachstums bei 50 μM.
[14] abbreviates: Fusarium proliferatum, 5 days at 20° C., HPLC-MS/MS, read-out: % Inhibition der FB1 produktion bei 50 μM.

Broadly, the inhibition is the relative decrease from the control value, in per cent. With `CC(C)C(=O)Nc1cc(-c2cn(C(C)C)nc2-c2ccc(F)cc2)ccn1` [Compound 84], the “% Activity level” value in experiment [1] was 75%. Also, the pest or weed control at 500 ppm in [2], in [4] and in experiment [9] was 100% throughout. Also, the pest or weed control at 250 ppm in experiment [3] came to 100%. In addition, the pest or weed control at 1000 ppm in experiment [5] and in experiment [6] was 100% throughout. Besides, in [7], the pest or weed control at 100 ppm is 98%. The inhibition at 50 µM in experiment [8] (setting [11]) stood at 100%; in [8] (setting [12]), 98%; in experiment [10] (setting [13]), 88%; in experiment [10] (setting [14]) it was 100%.

For the compound `CC(C)n1cc(-c2ccnc(NC(=O)C3CC3)c2)c(-c2ccc(F)cc2)n1` [Compound 86], the “% Activity level” value in experiment [1] amounted to 75%. For the same compound, the pest or weed control at 500 ppm in experiment [2], in experiment [4] and in [9] was 100% throughout. Moreover, in experiment [3], the pest or weed control at 250 ppm stood at 100%. For the same compound, the pest or weed control at 1000 ppm in experiment [5] and in [6] was 100% in each case. Also, the pest or weed control at 100 ppm in [7] was found to be 84%. Moreover, the inhibition at 50 µM in [8] (setting [11]) is 100%; in [8] (setting [12]), 97%; in experiment [10] (setting [13]) it was 96%; in [10] (setting [14]), 100%.

Consider `CC(C)Cn1cc(-c2ccncc2)c(-c2ccc(F)cc2)n1` [Compound 1], for which the “% Activity level” value in [1] was 94%. Besides, the pest or weed control at 500 ppm in experiment [2] and in experiment [9] was 100% in each case. The pest or weed control at 250 ppm in experiment [3] was found to be 100%. The pest or weed control at 1000 ppm in experiment [5] stood at 100%; in [6], 92%. For the same compound, the pest or weed control at 100 ppm in [7] came out at 100%.

On to `CCC(=O)Nc1cc(-c2cn(C(C)C)nc2-c2ccc(F)cc2)ccn1` [Compound 85], for which the pest or weed control at 500 ppm in experiment [2], in [4] and in experiment [9] was 100% each time. Further, the pest or weed control at 250 ppm in experiment [3] amounted to 97%. Moreover, the pest or weed control at 1000 ppm in experiment [5] and in [6] was 100% throughout. The pest or weed control at 100 ppm in [7] was 94%. For the same compound, the inhibition at 50 µM in [8] (setting [11]) came to 100%; in experiment [8] (setting [12]) it was 98%; in [10] (setting [13]), 95%; in experiment [10] (setting [14]) it was 100%.
